From ChEMBL document CHEMBL1201862, “PubChem BioAssay data set” (2004) come the findings set out here.

One test has as its target T1, Caspase-3 (Homo sapiens, UniProt P42574).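 Also: Dose-response selectivity test against caspase-3 for candidate inhibitors of sentrin-specific proteases (SENPs).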
T1 sequence (P42574 whole entry): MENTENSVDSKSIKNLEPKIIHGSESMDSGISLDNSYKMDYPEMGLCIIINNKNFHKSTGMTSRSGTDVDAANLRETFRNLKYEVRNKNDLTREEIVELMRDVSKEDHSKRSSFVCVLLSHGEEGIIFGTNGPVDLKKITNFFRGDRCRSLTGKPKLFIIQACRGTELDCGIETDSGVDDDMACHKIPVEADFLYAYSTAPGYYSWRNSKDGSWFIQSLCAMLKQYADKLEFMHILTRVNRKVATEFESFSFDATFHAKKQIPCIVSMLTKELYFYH
Format: functional.

The next test addresses T2, Caspase-7 (Homo sapiens, UniProt P55210).
T2 sequence (P55210 whole entry): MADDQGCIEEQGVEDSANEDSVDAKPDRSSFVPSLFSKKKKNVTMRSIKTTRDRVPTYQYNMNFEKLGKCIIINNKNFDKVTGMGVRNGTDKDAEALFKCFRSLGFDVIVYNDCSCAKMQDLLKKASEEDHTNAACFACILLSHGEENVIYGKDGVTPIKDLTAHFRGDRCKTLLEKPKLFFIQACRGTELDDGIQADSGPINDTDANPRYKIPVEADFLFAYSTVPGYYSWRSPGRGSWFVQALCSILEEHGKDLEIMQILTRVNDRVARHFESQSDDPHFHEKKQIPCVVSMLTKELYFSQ
As to the kind of experiment: human caspase-7 inhibitors, dose response, selectivity assay for caspase-6 inhibitor project, biochemical, DEVD-R110 fluorescence, cherry-pick (AID 743295). Format: […].

Test [1] concerns the target T3, Heat shock protein HSP 90-alpha (Homo sapiens, UniProt P07900). Format: functional, organism-based.
The nature of test [2]: C. albicans growth with fluconazole, confirmation, fluorescence, retest (AID 2467). Format: functional, cell-based.
In test [3] the target is T3, Heat shock protein HSP 90-alpha. Briefly: Luminescence-based dose response biochemical high throughput screening assay for inhibitors of the Heat Shock Protein 90 (HSP90). [Related pubchem assays: 1831 (Summary AID.), 1846 (Confirmation screen.), 1789 (Primary screen.)].
The target of the next test is T4, Hexokinase HKDC1 (Homo sapiens, UniProt Q2TB90).
T4 sequence (Q2TB90 whole entry): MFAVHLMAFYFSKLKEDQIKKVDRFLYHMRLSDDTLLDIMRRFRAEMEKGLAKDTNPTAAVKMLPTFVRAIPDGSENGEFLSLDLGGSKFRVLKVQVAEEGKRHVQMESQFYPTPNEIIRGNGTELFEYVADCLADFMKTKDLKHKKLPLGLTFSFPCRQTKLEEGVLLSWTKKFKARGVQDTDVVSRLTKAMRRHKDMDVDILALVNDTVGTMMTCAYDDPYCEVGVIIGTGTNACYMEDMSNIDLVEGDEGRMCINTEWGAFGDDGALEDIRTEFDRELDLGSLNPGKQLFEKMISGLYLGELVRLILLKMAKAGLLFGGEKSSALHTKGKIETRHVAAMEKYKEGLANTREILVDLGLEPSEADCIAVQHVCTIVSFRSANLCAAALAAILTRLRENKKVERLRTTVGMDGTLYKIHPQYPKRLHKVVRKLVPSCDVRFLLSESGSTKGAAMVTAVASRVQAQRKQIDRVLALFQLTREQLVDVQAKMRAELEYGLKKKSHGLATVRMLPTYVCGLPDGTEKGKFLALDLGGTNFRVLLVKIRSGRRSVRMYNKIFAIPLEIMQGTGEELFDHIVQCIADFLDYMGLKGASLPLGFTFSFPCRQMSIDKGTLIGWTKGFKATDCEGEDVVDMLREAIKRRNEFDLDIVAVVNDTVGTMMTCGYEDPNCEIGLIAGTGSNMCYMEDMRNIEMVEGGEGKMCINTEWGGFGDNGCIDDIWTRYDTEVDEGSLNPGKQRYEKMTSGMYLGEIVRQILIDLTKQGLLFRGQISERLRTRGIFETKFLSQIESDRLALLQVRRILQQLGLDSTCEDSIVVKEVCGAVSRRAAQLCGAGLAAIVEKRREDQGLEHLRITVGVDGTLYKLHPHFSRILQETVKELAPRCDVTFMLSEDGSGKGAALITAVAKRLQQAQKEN
Briefly: HKDC1 hexokinase inhibitors, dose response, biochemical, W721R variant (AID 504729). Format: functional.

Test [4] deals with Non-receptor tyrosine-protein kinase TYK2 (Homo sapiens, UniProt P29597). Format: functional.
Test [5] concerns the target Serine/threonine-protein kinase pim-1 (Homo sapiens, UniProt P11309). Format: functional.
Test [6] deals with Vascular endothelial growth factor receptor 1 (Homo sapiens, UniProt P17948). Format: functional.
For test [7], the target named is Dual specificity tyrosine-phosphorylation-regulated kinase 1A (Homo sapiens, UniProt Q13627). Format: functional.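 Also: measured against DYRK1A as one member of a broad kinome profiling panel.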
The target in test [8] is Mitogen-activated protein kinase 1 (Homo sapiens, UniProt P28482). Format: functional.
Test [9] has as its target BDNF/NT-3 growth factors receptor (Homo sapiens, UniProt Q16620). Format: functional.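 Also: NTRK2 measured as one member of a broad kinome-wide kinase profiling panel.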
The target of test [10] is Serine/threonine-protein kinase N2 (Homo sapiens, UniProt Q16513). Format: functional.
Sequence of Serine/threonine-protein kinase N2 (Q16513 whole entry): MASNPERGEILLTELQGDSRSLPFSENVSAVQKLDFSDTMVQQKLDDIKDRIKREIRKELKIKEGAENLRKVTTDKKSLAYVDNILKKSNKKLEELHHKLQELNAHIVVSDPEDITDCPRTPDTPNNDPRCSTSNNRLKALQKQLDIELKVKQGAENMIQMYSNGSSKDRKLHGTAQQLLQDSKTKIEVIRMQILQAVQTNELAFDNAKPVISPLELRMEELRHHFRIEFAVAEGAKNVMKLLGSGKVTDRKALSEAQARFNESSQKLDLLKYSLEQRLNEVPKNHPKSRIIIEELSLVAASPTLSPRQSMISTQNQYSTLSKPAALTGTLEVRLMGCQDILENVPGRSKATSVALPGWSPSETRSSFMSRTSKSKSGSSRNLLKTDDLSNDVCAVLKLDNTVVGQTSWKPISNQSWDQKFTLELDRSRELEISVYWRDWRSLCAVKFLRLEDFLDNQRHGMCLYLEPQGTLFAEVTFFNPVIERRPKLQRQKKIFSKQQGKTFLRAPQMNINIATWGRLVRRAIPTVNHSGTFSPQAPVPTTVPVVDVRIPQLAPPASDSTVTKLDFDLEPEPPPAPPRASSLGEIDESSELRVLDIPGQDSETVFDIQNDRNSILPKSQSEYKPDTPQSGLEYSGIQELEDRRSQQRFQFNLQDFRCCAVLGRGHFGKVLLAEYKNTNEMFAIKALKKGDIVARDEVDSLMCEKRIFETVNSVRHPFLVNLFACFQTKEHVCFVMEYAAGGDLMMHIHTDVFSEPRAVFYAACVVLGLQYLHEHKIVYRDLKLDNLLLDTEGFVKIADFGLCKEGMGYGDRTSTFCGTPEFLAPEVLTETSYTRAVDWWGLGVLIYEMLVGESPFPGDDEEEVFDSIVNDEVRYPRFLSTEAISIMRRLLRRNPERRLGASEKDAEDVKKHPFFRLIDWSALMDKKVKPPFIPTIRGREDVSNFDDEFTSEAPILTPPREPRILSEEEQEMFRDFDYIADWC
Test [11] deals with Serine/threonine-protein kinase DCLK1 (Homo sapiens, UniProt O15075). Format: functional.
Test [12] deals with Macrophage colony-stimulating factor 1 receptor (Homo sapiens, UniProt P07333). Format: functional.
Test [13] deals with cGMP-dependent protein kinase 1 (Homo sapiens, UniProt Q13976). Format: functional.
Test [14] has as its target Tyrosine-protein kinase Lyn (Homo sapiens, UniProt P07948). Format: functional.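 Also: lyn as one member of a kinase panel.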
The target in test [15] is MAP/microtubule affinity-regulating kinase 3 (Homo sapiens, UniProt P27448). Format: functional.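 Also: MARK3 affinity measured as one member of a kinome panel.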
Test [16] addresses Tyrosine-protein kinase receptor UFO (Homo sapiens, UniProt P30530). Format: functional.
Test [17] concerns the target Dual specificity protein kinase CLK2 (Homo sapiens, UniProt P49760). Format: functional.
Test [18] concerns the target STE20-like serine/threonine-protein kinase (Homo sapiens, UniProt Q9H2G2). Format: functional.
Test [19] deals with Tyrosine-protein kinase JAK2 (Homo sapiens, UniProt O60674). Format: functional.
Sequence of Tyrosine-protein kinase JAK2 (O60674 whole entry): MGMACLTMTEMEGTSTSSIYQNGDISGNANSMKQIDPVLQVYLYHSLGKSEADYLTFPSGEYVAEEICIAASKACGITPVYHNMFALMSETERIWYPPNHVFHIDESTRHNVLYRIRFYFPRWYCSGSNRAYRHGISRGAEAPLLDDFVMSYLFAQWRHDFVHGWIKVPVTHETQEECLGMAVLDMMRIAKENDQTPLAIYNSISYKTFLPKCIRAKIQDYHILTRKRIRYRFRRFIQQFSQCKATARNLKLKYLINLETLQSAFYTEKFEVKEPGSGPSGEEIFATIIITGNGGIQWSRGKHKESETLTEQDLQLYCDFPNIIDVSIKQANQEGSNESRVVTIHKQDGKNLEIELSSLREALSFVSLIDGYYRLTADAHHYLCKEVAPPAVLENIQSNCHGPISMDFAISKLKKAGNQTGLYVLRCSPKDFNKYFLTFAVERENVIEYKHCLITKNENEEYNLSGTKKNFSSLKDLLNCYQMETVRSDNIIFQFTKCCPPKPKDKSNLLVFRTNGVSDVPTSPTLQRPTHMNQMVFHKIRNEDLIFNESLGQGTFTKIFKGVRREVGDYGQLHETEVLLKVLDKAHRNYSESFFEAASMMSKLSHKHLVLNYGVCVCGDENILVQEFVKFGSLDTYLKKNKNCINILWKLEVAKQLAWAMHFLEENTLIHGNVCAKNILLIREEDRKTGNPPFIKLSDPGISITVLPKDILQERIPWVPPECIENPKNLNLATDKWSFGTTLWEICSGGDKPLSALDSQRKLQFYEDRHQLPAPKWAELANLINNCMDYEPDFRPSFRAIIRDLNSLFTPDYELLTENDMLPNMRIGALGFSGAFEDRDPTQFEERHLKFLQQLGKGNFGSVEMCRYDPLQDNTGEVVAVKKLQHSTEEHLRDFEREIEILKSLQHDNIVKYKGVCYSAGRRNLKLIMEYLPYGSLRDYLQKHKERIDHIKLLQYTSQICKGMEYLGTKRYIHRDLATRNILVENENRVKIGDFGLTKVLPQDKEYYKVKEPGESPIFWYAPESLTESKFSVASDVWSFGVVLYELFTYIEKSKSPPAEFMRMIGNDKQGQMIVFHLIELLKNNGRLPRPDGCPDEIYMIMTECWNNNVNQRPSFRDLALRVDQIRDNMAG
Test [20] concerns the target Tyrosine-protein kinase Fyn (Homo sapiens, UniProt P06241). Format: functional.
Test [21] concerns the target Serine/threonine-protein kinase TAO1 (Homo sapiens, UniProt Q7L7X3). Format: functional.

The source made the active and inactive calls. Bounds are passed on as bounds.

Sequence of Tyrosine-protein kinase Fyn (P06241 whole entry): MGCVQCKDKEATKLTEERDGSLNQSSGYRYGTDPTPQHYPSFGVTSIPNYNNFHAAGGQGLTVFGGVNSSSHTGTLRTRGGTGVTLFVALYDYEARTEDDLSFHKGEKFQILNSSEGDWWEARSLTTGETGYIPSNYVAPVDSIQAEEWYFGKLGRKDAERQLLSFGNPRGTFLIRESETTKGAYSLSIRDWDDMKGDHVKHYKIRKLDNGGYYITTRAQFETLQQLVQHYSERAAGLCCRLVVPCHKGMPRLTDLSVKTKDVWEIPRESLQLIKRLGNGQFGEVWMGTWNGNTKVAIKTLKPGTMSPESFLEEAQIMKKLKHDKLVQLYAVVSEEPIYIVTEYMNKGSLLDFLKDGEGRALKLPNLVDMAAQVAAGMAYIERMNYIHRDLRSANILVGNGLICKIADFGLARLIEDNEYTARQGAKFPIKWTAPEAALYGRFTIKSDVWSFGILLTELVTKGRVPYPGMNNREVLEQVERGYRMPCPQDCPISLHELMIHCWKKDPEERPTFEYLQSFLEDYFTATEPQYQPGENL
Sequence of Serine/threonine-protein kinase TAO1 (Q7L7X3 whole entry): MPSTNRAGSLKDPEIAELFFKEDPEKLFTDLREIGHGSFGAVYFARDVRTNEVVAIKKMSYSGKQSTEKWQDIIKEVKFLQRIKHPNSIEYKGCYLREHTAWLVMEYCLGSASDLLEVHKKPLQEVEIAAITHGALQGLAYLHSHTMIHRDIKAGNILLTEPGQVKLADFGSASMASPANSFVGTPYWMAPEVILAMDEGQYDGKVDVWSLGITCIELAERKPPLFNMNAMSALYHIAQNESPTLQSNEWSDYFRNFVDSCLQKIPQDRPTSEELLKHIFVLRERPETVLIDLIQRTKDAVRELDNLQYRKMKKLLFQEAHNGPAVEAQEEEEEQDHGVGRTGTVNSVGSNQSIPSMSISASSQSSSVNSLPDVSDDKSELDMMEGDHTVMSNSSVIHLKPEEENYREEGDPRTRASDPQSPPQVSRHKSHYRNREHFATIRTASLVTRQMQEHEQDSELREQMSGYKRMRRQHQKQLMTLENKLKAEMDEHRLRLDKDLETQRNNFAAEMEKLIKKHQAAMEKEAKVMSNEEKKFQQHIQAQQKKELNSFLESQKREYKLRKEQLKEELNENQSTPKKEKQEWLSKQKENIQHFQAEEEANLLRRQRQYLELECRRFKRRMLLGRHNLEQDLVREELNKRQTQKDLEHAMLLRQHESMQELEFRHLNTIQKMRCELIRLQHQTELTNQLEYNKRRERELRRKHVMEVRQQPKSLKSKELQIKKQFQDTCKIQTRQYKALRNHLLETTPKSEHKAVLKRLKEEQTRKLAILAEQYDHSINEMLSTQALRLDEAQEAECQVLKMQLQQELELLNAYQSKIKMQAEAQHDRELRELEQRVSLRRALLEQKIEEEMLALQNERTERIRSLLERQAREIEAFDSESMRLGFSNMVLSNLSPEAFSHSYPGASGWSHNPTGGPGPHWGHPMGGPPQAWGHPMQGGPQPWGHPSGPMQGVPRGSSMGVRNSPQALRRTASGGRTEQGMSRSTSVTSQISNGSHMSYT
Sequence of STE20-like serine/threonine-protein kinase (Q9H2G2 whole entry): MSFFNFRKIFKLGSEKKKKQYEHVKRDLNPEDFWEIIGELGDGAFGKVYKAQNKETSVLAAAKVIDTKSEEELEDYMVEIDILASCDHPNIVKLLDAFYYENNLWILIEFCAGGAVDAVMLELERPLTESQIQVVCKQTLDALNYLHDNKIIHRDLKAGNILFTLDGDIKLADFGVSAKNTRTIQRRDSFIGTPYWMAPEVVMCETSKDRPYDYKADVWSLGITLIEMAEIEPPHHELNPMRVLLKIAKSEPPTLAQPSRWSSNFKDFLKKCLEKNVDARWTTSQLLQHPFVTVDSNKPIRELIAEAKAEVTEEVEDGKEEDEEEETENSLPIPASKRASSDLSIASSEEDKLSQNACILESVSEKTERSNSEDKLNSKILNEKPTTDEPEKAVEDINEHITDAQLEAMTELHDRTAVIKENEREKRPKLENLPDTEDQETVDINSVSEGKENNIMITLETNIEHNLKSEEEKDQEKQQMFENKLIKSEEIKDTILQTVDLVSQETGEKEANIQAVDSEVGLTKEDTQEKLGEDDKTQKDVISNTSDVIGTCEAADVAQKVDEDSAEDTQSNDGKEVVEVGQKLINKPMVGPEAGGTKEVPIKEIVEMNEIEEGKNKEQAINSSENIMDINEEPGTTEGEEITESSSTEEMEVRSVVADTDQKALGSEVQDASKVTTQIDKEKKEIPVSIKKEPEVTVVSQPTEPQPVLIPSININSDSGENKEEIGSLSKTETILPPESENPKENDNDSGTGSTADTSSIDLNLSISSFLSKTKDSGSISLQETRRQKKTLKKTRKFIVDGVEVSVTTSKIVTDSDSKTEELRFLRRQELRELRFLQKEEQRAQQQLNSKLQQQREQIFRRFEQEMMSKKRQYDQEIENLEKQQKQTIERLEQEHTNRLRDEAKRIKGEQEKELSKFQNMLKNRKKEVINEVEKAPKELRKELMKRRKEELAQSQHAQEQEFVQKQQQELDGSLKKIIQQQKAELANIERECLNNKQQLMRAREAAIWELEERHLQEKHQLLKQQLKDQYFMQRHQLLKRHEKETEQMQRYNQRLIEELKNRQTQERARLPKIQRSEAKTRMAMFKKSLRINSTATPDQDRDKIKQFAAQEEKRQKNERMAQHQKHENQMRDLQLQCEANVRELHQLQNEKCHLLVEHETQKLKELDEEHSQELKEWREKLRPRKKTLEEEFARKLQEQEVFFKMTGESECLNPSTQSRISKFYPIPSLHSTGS

In general, IC50 refers to the concentration that inhibits the measured activity by half. As to `Cc1ccc(C(=O)NC2(O)C(=O)c3ccccc3C2=O)cc1C`, at Caspase-3, the IC50 is > 100 µM (inactive).

One may read the AC50 as the concentration giving half of the maximal activity seen. In the case of `O=[N+]([O-])c1c(Nc2ccccn2)cc(Cl)c2nonc12`, the results for the concentration at half-maximal activity (AC50) (at Caspase-7; in test [1]) were 20.3 µM (active) and 1.93 µM (active), respectively.

One may read the EC50 as the concentration giving half of the maximal effect. Read a low EC50 as greater potency. Take `CC[C@@H](C)[C@H](CNC)NC[C@@H](Cc1cccc2ccccc12)NCCc1cccc(C(F)(F)F)c1`: the EC50 in [2] is reported as > 38 µM (not active).

Regarding `Cc1ccc(S(=O)(=O)/N=C2\C=C(Nc3cccc(C(=O)O)c3)C(=O)c3ccccc32)cc1`, the 50% inhibitory concentration (IC50) was 0.524 µM (active) in test [3] and 4.31 µM (active) at Hexokinase HKDC1.

Usually Ki stands for a dissociation constant, usually derived from enzyme kinetics or from competition with a known ligand. Take `CC(C)(CO)CNc1nccc(-c2c(-c3ccc(F)cc3)nc3c(CC4CC4)nccn23)n1`: the Ki is > 2 µM (inactive) in test [4]; > 10 µM (inactive) in test [5]; > 0.398 µM (inactive) in [6]; 2.51 µM (active) in [7]; 6.31 µM (active) in test [8]; > 5.01 µM (inactive) in [9]. Besides, the Ki is > 7.94 µM (inactive) in [10]; > 10 µM (inactive) in [11]; > 2.51 µM (inactive) in test [12]; > 2 µM (inactive) in test [13]; > 1.58 µM (inactive) in [14]; > 6.31 µM (inactive) in test [15]. The Ki was > 2 µM (inactive) in test [16]; > 7.94 µM (inactive) in test [17]; > 10 µM (inactive) in test [18]; > 1.58 µM (inactive) in test [19]; > 0.794 µM (inactive) in test [20]; 7.94 µM (active) in [21].
